Read-outs that look alike come from different tables or passages of the source.
Legend:
PDE2 = molecular target: T1, PDE2 (Homo sapiens, UniProt O00408); assay: Inhibition of PDE2 (radioenzymatic phosphodiesterase assay); type: biochemical; conditions: 10 μM compound, 1 μM cyclic AMP
T1 construct: PDE2 was isolated from human platelets, provided by Etablissement Français du Sang-Alsace; tissue Etablissement Français du Sang-Alsace; host or cells: human platelets
Method: 2.1.1. Isolation of Phosphodiesterases from Smooth Muscle A 3 g segment of bovine aortic media cut into pieces with scissors was homogenized with an ultra-turrax then a potter glass/glass homogenizer in 7 volumes by weight of buffer A containing a protease inhibitor cocktail (20 mM Tris-HCl, 0.25 M saccharose, 2 mM magnesium acetate, 1 mM dithiothreitol, 5 mM EGTA, 2000 U/ml aprotinin, 10 mg/l leupeptin and 10 mg/l soya trypsic inhibitor). The homogenizate was centrifuged at 105,000 g for 1 hour. The supernatant was loaded on a DEAE-Sephacel column (15×1.6 cm) pre-equilibrated with buffer B (buffer A without the saccharose, EGTA and protease inhibitors). The column was washed until there was no detectable absorption at 280 nm, then eluted with a linear gradient of NaCl (0-0.5 M) in buffer B. 3-ml fractions were collected and enzyme activity was determined under the conditions described hereinbelow to localize the different enzymes PDE1, PDE3, PDE4 and PDE5 which were aliquoted and frozen at −80° C. (Lugnier et al., Biochem. Phamacol., 1986, 35: 1746-1751). PDE2 was isolated from human platelets, provided by Etablissement Français du Sang-Alsace, according to Kameni Tcheudji J F et al., (J. Mol. Biol. 2001; 310: 181-791), and stored until use at −80° C. in small aliquots.
Cyclic nucleotide phosphodiesterase activity was determined by a radioenzymatic method using tritium-labelled cyclic GMP or AMP (1 μM) as substrate (Lugnier et al., 1986). ^3H-labelled adenosine or guanosine monophosphate formed by hydrolysis of the radiolabelled cyclic nucleotide was then converted to ^3H-labelled adenosine or guanosine in a second reaction with […] in excess. The nucleoside formed was separated from the nucleotides by anion exchange chromatography. Nucleoside radioactivity was determined by liquid scintillation counting. Enzymatic incubations were carried out under conditions allowing no more than 15% hydrolysis of the substrate; each point was performed in duplicate.
The concentration of substance which inhibits enzymatic activity by 50% (IC50) at 1 μM cyclic AMP was calculated by nonlinear regression from the experimental values of hydrolysis rate (Prism, GraphPad).

σ receptors = assay: Isolated organ bioassay, field-stimulated vas deferens: test for agonist activity; set-up: species or system guinea pig
Method: Segments of guinea pig vas deferens were suspended in 20-ml organ baths containing an oxygenated (95% O2 and 5% CO2) and pre-warmed (37° C.) physiological salt solution of the following composition (in mM): NaCl 118.0, KCl 4.7, MgSO4 1.2, CaCl2 2.5, KH2PO4 1.2, NaHCO3 25.0 and glucose 11.0 (pH 7.4). Yohimbine (1 μM), (−) sulpiride (1 μM), atropine (1 μM) and naloxone (1 μM) were also present throughout the experiments to block the α2-adrenergic, dopamine D2, muscarinic and opioid receptors, respectively. The tissues were connected to force transducers for isometric tension recordings. They were stretched to a resting tension of 0.5 g, allowed to equilibrate for at least 30 min during which time they were washed repeatedly and the tension readjusted. Thereafter, they were stimulated electrically using a constant current stimulator.
The tissues were exposed to a submaximal concentration of the reference agonist (+) SKF-10047 (100 μM) to verify responsiveness and to obtain a control response. Following washings and recovery of the twitch contraction amplitude, the tissues were exposed to increasing concentrations of substance or the same agonist. The different concentrations were added cumulatively and each was left in contact with the tissues until a stable response was obtained or for a maximum of 15 min. If an agonist-like response (enhancement of twitch contractions) was obtained, the reference antagonist rimcazole (10 μM) was tested against the highest concentration of substance to confirm the involvement of the σ receptors in this response.
The parameter measured was the maximum change in the twitch contraction amplitude induced by each compound concentration. The results are expressed as a percent variation of the control twitch contraction amplitude (mean values). The effects of substance tested at 1.0 10^−6 M, 3.0 10^−6 M and 1.0 10^−5 M for agonist and antagonist activities at the σ receptors in the guinea pig vas deferens bioassay are summarized in Tables 6-7 where those of the reference compounds are also reported.

[1] = read-out: PDE2 percentage inhibition at 10 μM, Table 1
[2] = Table 1, read-out: PDE2 percentage inhibition at 10 μM

T1 sequence (O00408 whole entry): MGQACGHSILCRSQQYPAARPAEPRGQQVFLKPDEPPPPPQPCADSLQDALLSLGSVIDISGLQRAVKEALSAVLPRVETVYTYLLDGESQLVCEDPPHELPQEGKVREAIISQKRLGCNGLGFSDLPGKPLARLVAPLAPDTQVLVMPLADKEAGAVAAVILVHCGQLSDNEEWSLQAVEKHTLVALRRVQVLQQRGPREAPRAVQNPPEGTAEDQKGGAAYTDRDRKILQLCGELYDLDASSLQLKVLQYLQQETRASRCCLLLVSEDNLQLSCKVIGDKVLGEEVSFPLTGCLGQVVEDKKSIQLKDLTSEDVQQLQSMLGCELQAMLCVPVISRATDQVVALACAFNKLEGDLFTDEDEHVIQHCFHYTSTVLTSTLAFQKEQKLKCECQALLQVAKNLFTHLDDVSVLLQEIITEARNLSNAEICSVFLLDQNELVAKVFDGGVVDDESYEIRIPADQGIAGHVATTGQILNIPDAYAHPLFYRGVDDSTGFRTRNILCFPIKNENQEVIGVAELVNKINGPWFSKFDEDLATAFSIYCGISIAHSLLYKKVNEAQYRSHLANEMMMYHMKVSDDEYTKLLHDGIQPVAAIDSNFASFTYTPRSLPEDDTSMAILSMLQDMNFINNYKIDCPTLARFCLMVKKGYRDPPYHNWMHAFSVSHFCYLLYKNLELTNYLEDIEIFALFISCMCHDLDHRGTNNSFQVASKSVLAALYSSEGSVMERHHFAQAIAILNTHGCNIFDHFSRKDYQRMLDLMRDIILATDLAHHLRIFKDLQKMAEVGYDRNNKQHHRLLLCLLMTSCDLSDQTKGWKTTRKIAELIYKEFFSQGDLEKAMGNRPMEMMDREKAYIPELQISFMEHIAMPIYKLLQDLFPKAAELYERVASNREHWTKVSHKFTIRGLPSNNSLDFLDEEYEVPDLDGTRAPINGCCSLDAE

Compound: COc1cc2c(c(OC)c1-c1ccccc1)C(c1cccc(C#CCN)c1)=NCC(=O)N2C [Compound 31, 5-[3-(3-Amino-prop-1-ynyl)-phenyl]6,8-dimethoxy-1-methyl-7-phenyl-1,3-dihydro-benzo[e][1,4]diazepin-2-one]
- inhibition at 10 µM (PDE2; [1]): 42%

Compound: COc1cc2c(c(OC)c1-c1cccnc1)C(c1cccc(C#N)c1)=NCC(=O)N2 [Compound 4]
- PDE2 percentage inhibition at 10 μM (PDE2; Table 1): 4%

Compound: COc1cc2c(c(OC)c1-c1ccccc1)C(c1cccc(C(N)=O)c1)=NCC(=O)N2CC1CC1 [Compound 23, 3-(1-Cyclopropylmethyl-6,8-dimethoxy-2-oxo-7-phenyl-2,3-dihydro-1H-benzo[e][1,4]diazepin-5-yl)-benzamide]
- inhibition at 10 µM (PDE2; [1]): 15%

Compound: CCN1C(=O)CN=C(c2cccc(C#N)c2)c2c1cc(OC)c(-c1ccccc1)c2OC [Compound 11, 3-(6,8-Dimethoxy-2-oxo-7-phenyl-1-ethyl-2,3-dihydro-1H-benzo[e][1,4]diazepin-5-yl)-benzonitrile]
- inhibition at 10 µM (PDE2; [1]): 10%

Compound: COc1cc2c(c(OC)c1-c1ccccc1)C(c1cccc(C(N)=O)c1)=NCC(=O)N2Cc1ccccc1 [Compound 24, 3-(1-Benzyl-6,8-dimethoxy-2-oxo-7-phenyl-2,3-dihydro-1H-benzo[e][1,4]diazepin-5-yl)-benzamide]
- inhibition at 10 µM (PDE2; [1]): 18%

Compound: COc1cc2c(c(OC)c1-c1ccccc1)C(c1cccc(C#CCNC(=O)OC(C)(C)C)c1)=NCC(=O)N2C [Compound 30, {3-[3-(6,8-Dimethoxy-1-methyl-2-oxo-7-phenyl-2,3-dihydro-1-benzo[e][1,4]diazepin-5-yl)-phenyl]-prop-2-ynyl}-carbamic acid tert-butyl ester]
- PDE2 percentage inhibition at 10 μM (PDE2; Table 1): 69%

Compound: COc1cc2c(c(OC)c1-c1ccccc1)C(c1cccc(CCCN)c1)=NCC(=O)N2C [Compound 32, 5-[3-(3-Amino-propyl)-phenyl]-6,8-dimethoxy-1-methyl-7-phenyl-1,3-dihydro-benzo[e][1,4]diazepin-2-one]
- inhibition at 10 µM (PDE2; [1]): 22%

Compound: COc1cc2c(c(OC)c1-c1ccccc1)C(c1cccc(C#N)c1)=NCC(=O)N2CCCc1ccccc1 [Compound 16, 3-[6,8-Dimethoxy-2-oxo-7-phenyl-1-(3-phenyl-propyl)-2,3-dihydro-1H-benzo[e][1,4]diazepin-5-yl]-benzonitrile]
- inhibition at 10 µM (PDE2; [1]): 18%

Compound: COc1cc2c(c(OC)c1-c1ccccc1)C(c1cccc(C#N)c1)=NCC(=O)N2CC1CC1 [Compound 13, 3-(1-Cyclopropylmethyl-6,8-dimethoxy-2-oxo-7-phenyl-2,3-dihydro-1H-benzo[e][1,4]diazepin-5-yl)-benzonitrile]
- inhibition at 10 µM (PDE2; [1]): 20%

Compound: CCN1C(=O)CN=C(c2cccc(C(N)=O)c2)c2c1cc(OC)c(-c1ccccc1)c2OC [Compound 21, 3-(6,8-Dimethoxy-2-oxo-7-phenyl-1-ethyl-2,3-dihydro-1H-benzo[e][1,4]diazepin-5-yl)-benzamide]
- inhibition at 10 µM (PDE2; [1]): 31%

Compound: COc1cc2c(c(OC)c1-c1ccccc1)C(c1cccc(C#CCNC(=O)OC(C)(C)C)c1)=NCC(=O)N2C [Compound 28, {3-[3-(6,8-Dimethoxy-1-methyl-2-oxo-7-phenyl-2,3-dihydro-1H-benzo[e][1,4]diazepin-5-yl)-phenyl]-prop-2-ynyl}-carbamic acid tert-butyl ester]
- inhibition at 10 µM (PDE2; [1]): 43%

Compound: COCC#Cc1cccc(C2=NCC(=O)N(C)c3cc(OC)c(-c4ccccc4)c(OC)c32)c1 [Compound 27, 6,8-Dimethoxy-5-[3-(3-methoxy-prop-1-ynyl)-phenyl]-1-methyl-7-phenyl-1,3-dihydro-benzo[e][1,4]diazepin-2-one]
- inhibition at 10 µM (PDE2; [1]): 83%

Compound: COc1cc2c(c(OC)c1-c1ccccc1)C(c1cccc(Br)c1)=NCC(=O)N2C [Compound 10, 5-(3-Bromo-phenyl)-6,8-dimethoxy-1-methyl-7-phenyl-1,3-dihydro-benzo[e][1,4]diazepin-2-one]
- inhibition at 10 µM (PDE2; [2]): 86%

Compound: COc1cc2c(c(OC)c1-c1ccccc1)C(c1cccc(C(N)=O)c1)=NCC(=O)N2Cc1ccc(C(F)(F)F)cc1 [Compound 25, 3-[6,8-Dimethoxy-2-oxo-7-phenyl-1-(4-trifluoromethyl-benzyl)-2,3-dihydro-1H-benzo[e][1,4]diazepin-5-yl]-benzamide]
- inhibition at 10 µM (PDE2; [1]): 18%

Compound: COc1cc2c(c(OC)c1-c1cccnc1)C(c1cccc(C(N)=O)c1)=NCC(=O)N2 [Compound 19, 3-(6,8-Dimethoxy-2-oxo-7-pyridin-3-yl-2,3-dihydro-1H-benzo[e][1,4]diazepin-5-yl)-benzamide]
- PDE2 percentage inhibition at 10 μM (PDE2; Table 1): 27%

Compound: CCCN1C(=O)CN=C(c2cccc(C(N)=O)c2)c2c1cc(OC)c(-c1ccccc1)c2OC [Compound 22, 3-(6,8-Dimethoxy-2-oxo-7-phenyl-1-propyl-2,3-dihydro-1H-benzo[e][1,4]diazepin-5-yl)-benzamide]
- inhibition at 10 µM (PDE2; [1]): 16%

Compound: COc1cc2c(c(OC)c1-c1ccccc1)C(c1ccccc1)=NCC(=O)N2 [Compound 3, 6,8-Dimethoxy-5,7-diphenyl-1,3-dihydro-benzo[e][1,4]diazepin-2-one]
- inhibition at 10 µM (PDE2; [2]): 25%

Compound: CCCN1C(=O)CN=C(c2cccc(C#N)c2)c2c1cc(OC)c(-c1ccccc1)c2OC [Compound 12, 3-(6,8-Dimethoxy-2-oxo-7-phenyl-1-propyl-2,3-dihydro-1H-benzo[e][1,4]diazepin-5-yl)-benzonitrile]
- inhibition at 10 µM (PDE2; [1]): 17%

Compound: COc1cc2c(c(OC)c1-c1ccccc1)C(c1cccc(C#N)c1)=NCC(=O)N2Cc1ccc(C(F)(F)F)cc1 [Compound 15, 3-[6,8-Dimethoxy-2-oxo-7-phenyl-1-(4-trifluoromethyl-benzyl)-2,3-dihydro-1H-benzo[e][1,4]diazepin-5-yl]-benzonitrile]
- inhibition at 10 µM (PDE2; [1]): 9%

Compound: (+)SKF-10,047
- Response to the compound, variation of twitch contraction amplitude (σ receptors; 1.0 10^−4 M, mean, n=2): +158%
- Response to the compound, variation of twitch contraction amplitude (σ receptors; 1.0 10^−5 M, mean, n=2): +40%
- Response to the compound, variation of twitch contraction amplitude (σ receptors; 3.0 10^−5 M, mean, n=2): +90%
- Effect on twitch contraction amplitude (in words) (σ receptors; field-stimulated guinea pig vas deferens): concentration-dependent enhancement of the twitch contraction amplitude
- Response to the highest concentration of the compound +Rimcazole (1.0 10^−5 M) (σ receptors; highest compound concentration plus rimcazole 1.0 10^−5 M, mean, n=2): −8%

Compound: COc1cc2c(c(OC)c1-c1ccccc1)C(c1cccc(C#N)c1)=NCC(=O)N2Cc1ccccc1 [Compound 14, 3-(1-Benzyl-6,8-dimethoxy-2-oxo-7-phenyl-2,3-dihydro-1H-benzo[e][1,4]diazepin-5-yl)-benzonitrile]
- inhibition at 10 µM (PDE2; [1]): 9%

Compound: COc1cc2c(c(OC)c1-c1ccccc1)C(c1cccc(C(N)=O)c1)=NCC(=O)N2CCCc1ccccc1 [Compound 26, 3-[6,8-Dimethoxy-2-oxo-7-phenyl-1-(3-Phenyl-propyl)-2,3-dihydro-1H-benzo[e][1,4]diazepin-5-yl]-benzamide]
- inhibition at 10 µM (PDE2; [1]): 5%

— patent US20090215752A1, “Compounds, preparation and therapeutic use thereof” (priority 2005, published 2009)
